The text below walks through data of patent US8906852B2 (MethylGene Inc., priority 2010, dated 2014).

The target in one assay is T1, VEGFR/KDR (Homo sapiens, UniProt P35968).
T1 construct: made in house; host or cells: Sf9 cells (Spodoptera frugiperda), baculovirus
The experiment in a line: VEGFR/KDR kinase inhibition, DELFIA assay. Format: biochemical. To be noted: ATP 0.6 uM (2x Km), enzyme 5 nM. In outline:
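DELFIA time-resolved fluorescence readout using Europium-tagged anti-phosphotyrosine antibody after EDTA stop. Kinase reaction on plate-bound poly(Glu4,Tyr) ran 10-30 min at 30° C with 5 nM enzyme and 0.6 uM ATP (2× Km), following 4 min on-ice pre-incubation with compound; IC50 over a concentration range.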

A further assay relates to CNV progression. Description: In vivo choroidal neovascularization (CNV) model, laser-induced, intravitreal injection. Also on record: species or system Male Brown-Norway rats. To be noted: rat; for inhibition in vivo at 10 nmol/eye / Inhibition of CNV progression: 10 nmol/eye injected on Day 3, CNV area on Day 10, vs vehicle. An excerpt:
This test measures the capacity of compounds to inhibit CNV progression. CNV is the main cause of severe vision loss in patients suffering from age-related macular degeneration (AMD).
Male Brown-Norway rats (Japan Clea Co., Ltd.) were used in these studies.
Rats were anesthetized by intraperitoneal injection of pentobarbital, and the right pupil was dilated with 0.5% tropicamide and 0.5% phenylephrine hydrochloride. The right eye received 6 laser burns between retinal vessels using a slit lamp delivery system of Green laser Photocoagulator (Nidex Inc., Japan), and microscope slide glass with Healon™ (AMO Inc) used as a contact lens. The laser power was 100 or 200 mW for 0.1 second and spot diameter was 100 μm. At the time of laser burn, bubble production was observed, which is an indication of rupture of Bruch's membrane which is important for CNV generation.
Rats were divided into the groups based on their body weight using SAS software (SAS institute Japan, R8.1) after laser irradiation (Day 0). After animals were anesthetized, and the right pupil dilated (as above mentioned), the right eye of the animal received the compound or vehicle by an injection (10 μL/eye) at doses of 10 or 3 nmol/eye on Day 3. The compounds were dissolved or suspended in CBS, PBS, or other adequate vehicles before injection.
On Day 10, the animals were anesthetized with ether, and high molecular weight fluorescein isothiocyanate (FITC)-dextran (SIGMA, 2×10^6 MW) was injected via a tail vein (20 mg/rat). About 30 min after FITC-dextran injection, animals were euthanized by ether or carbon dioxide, and the eyes were removed and fixed with 10% formaline neutral buffer solution. After over 1 hour of fixation, RPE-choroid-sclera flat mounts were obtained by removing cornea, lens and retina from the eyeballs. The flat mounts were mounted in 50% glycerol on a microscope slide, and the portion burned by laser was photographed using a fluorescence microscope (Nikon Corporation, excitation filter:465-495 nm, absorption filter:515-555 nm). The CNV area was obtained by measurement of hyper-fluorescence area observed on the photograph using Scion image.
The average CNV area of 6 burns was used as an individual value of CNV area, and the average CNV area of compound treated group was compared with that of the vehicle-treated group.

T1 sequence (P35968 806-1356): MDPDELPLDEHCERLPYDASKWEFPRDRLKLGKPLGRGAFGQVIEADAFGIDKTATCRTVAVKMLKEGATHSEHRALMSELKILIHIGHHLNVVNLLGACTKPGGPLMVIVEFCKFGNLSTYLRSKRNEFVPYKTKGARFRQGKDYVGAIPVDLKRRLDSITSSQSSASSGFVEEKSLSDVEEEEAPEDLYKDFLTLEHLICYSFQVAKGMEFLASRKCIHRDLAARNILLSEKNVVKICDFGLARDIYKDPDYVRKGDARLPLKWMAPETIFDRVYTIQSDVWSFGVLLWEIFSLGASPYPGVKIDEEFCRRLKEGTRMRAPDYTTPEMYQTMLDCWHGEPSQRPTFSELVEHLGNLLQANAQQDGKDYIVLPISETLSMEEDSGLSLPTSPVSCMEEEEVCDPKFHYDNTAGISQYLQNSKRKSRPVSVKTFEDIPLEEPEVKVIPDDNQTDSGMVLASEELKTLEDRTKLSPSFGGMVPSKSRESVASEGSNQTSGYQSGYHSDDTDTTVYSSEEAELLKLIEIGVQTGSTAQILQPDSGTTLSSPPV

Usually IC50 stands for the concentration that inhibits the measured activity by half. Lower therefore signals greater potency in that assay. By inhibition in vivo is commonly meant the percentage by which the read-out fell short of the control. As to `COCCN(Cc1ccc(-c2cc3nccc(Oc4ccc(NC(=O)NC5CC5)cc4F)c3s2)nc1)C(=O)[C@H](C)O` [Compound 89, (S)-N-((6-(7-(4-(3-cyclopropylureido)-2-fluorophenoxy)thieno[3,2-b]pyridin-2-yl)pyridin-3-yl)methyl)-2-hydroxy-N-(2-methoxyethyl)propanamide], the IC50 against VEGFR/KDR is less than 50 nM. Besides, in the assay on CNV progression (240 h), the inhibition in vivo at 10 nmol/eye is no less than 60%. Molecule `O=C(Nc1ccc(Oc2ccnc3cc(-c4ccc(CNCCO)cn4)sc23)c(F)c1)NC1CC1` [Compound 9, 1-cyclopropyl-3-(3-fluoro-4-(2-(5-((2-hydroxyethylamino)methyl)pyridin-2-yl)-thieno[3,2-b]pyridin-7-yloxy)phenyl)urea] came in with an IC50 at VEGFR/KDR of less than 50 nM. The inhibition in vivo at 10 nmol/eye in the assay with CNV progression (240 h) was no less than 60%.

With `COCCN(C=N)Cc1ccc(-c2cc3nccc(Oc4ccc(NC(=O)NC5CC5)cc4F)c3s2)nc1` [Compound 7, N-((6-(7-(4-(3-cyclopropylureido)-2-fluorophenoxy)thieno[3,2-b]pyridin-2-yl)pyridin-3-yl)methyl)-N-(2-methoxyethyl)formimidamide], the IC50 at VEGFR/KDR was less than 50 nM. In the assay on CNV progression (240 h), this molecule returned an inhibition in vivo at 10 nmol/eye of no less than 60%. On the same counts, the results for `CCNC(=O)N(CCOCCOCCOCCOC)Cc1ccc(-c2cc3nccc(Oc4ccc(NC(=O)NC5CC5)cc4F)c3s2)nc1` [Compound 36, N-[3-((6-(7-(4-(3-cyclopropylureido)-2-fluorophenoxy)-thieno[3,2-b]-pyridin-2-yl)pyridin-3-yl)methyl)]-N-(1-ethyl)-N-[3-(2,5,8,11-tetraoxatridecan-13-yl)]urea] are less than 50 nM and 40 to 60%. For the molecule `CN1CCC(CN2CCN(C(=O)c3ccc(-c4cc5nccc(Oc6ccc(NC(=O)NC7CC7)cc6F)c5s4)nc3)CC2)CC1` [Compound 232, 1-cyclopropyl-3-(3-fluoro-4-(2-(5-(4-((1-methylpiperidin-4-yl)methyl)piperazine-1-carbonyl)pyridin-2-yl)thieno[3,2-b]pyridin-7-yloxyl)phenyl)urea], at VEGFR/KDR, the IC50 is less than 50 nM. In the assay on CNV progression (240 h, 3 nmol/eye injected on Day 3, CNV area on Day 10, vs vehicle), this molecule yielded an inhibition in vivo at 3 nmol/eye of 40 to 60%. On VEGFR/KDR, `CN(C)C(=O)CCN1CCN(Cc2ccc(-c3cc4nccc(Oc5ccc(NC(=O)NC6CC6)cc5F)c4s3)nc2)CC1` [Compound 83, 3-(4-((6-(7-(4-(3-cyclopropylureido)-2-luorophenoxy)thieno-[3,2-b]pyridin-2-yl)pyridin-3-yl)melhyl)piperazin-l-yl)-N,N-dimethyl-propanamide] gave an IC50 of less than 50 nM. In the assay on CNV progression (240 h), this molecule returned an inhibition in vivo at 10 nmol/eye of 40 to 60%. In the same order, the values of `Cn1c(CN2CCCC2=O)cnc1-c1cc2nccc(Oc3ccc(NC(=O)NC4CC4)cc3F)c2s1` [Compound 137, 1-cyclopropyl-3-(3-fluoro-4-(2-(1-methyl-5-((2-oxopyrrolidin-1-yl)methyl)-1H-imidazol-2-yl)thieno[3,2-b]pyridin-7-yloxy)phenyl)urea] are less than 50 nM and 40 to 60%. For the molecule “N-((6-(7-(4-(3-cyclopropylureido)-2-fluorophenoxy)thieno[3,2-b]pyridin-2-yl)pyridin-3-yl)methyl)-N-(2-methoxyethyl)formimidamide [Compound 7]”, the “Inhibition of CNV progression” value with CNV progression is given as “B (≧40% to <60% inhibition)”. In turn, `COCCN(CCc1ccc(-c2cc3nccc(Oc4ccc(NC(=O)NC5CC5)cc4F)c3s2)nc1)C(C)=O` [Compound 41, N-(2-(6-(7-(4-(3-cyclopropylureido)-2-fluorophcnoxy)-thieno[3,2-b]-pyridin-2-yl)pyridin-3-yl)ethyl)-N-(2-methoxyethyl)-acetamide] returned an IC50 against VEGFR/KDR of less than 50 nM. In addition, the inhibition in vivo at 10 nmol/eye with CNV progression (240 h) fell in the range of 40 to 60%. Take `CC(=O)N(CCS(C)(=O)=O)Cc1ccc(-c2cc3nccc(Oc4ccc(NC(=O)NC5CC5)cc4F)c3s2)nc1` [Compound 43, N-((6-(7-(4-(3-cyclopropylureido)-2-fluorophenoxy)thieno[3,2-b]pyridin-2-yi)pyridin-3-yl)methyl)-N-(2-(methylsulfonyl)ethyl)acetamide]: the IC50 at VEGFR/KDR is less than 50 nM. The molecule also had an inhibition in vivo at 10 nmol/eye in the assay with CNV progression (240 h) of 40 to 60%. On the same counts, the results for `COCCNCc1ccc(-c2cc3nccc(Oc4ccc(NC(=O)NC5CC5)c(F)c4F)c3s2)nc1` [Compound 25, 1-cyclopropyl-3-(2,3-difluoro-4-(2-(5-((2-methoxyethylamino)methyl)pyridin-2-yl)thieno[3,2-b]pyridin-7-yloxy)phenyl)urea] are less than 50 nM and no less than 60%.

For `O=C(Nc1ccc(Oc2ccnc3cc(-c4ccc(CN5CCCS5(=O)=O)cn4)sc23)c(F)c1)NC1CC1` [Compound 142, 1-cyclopropyl-3-(3-fluoro-4-(2-(5-(2,2-dioxo-2-thiapyrrolidin-1-ylmethyl)pyridin-2-yl)thieno[3,2-b]pyridin-7-yloxy)phenyl)urea], at VEGFR/KDR, the IC50 was less than 50 nM. The same molecule came in with an inhibition in vivo at 10 nmol/eye in the assay on CNV progression (240 h) of 40 to 60%. `COCCNCCc1ccc(-c2cc3nccc(Oc4ccc(NC(=O)NC5CC5)cc4F)c3s2)nc1` [Compound 288, 1-cyclopropyl-3-(3-fluoro-4-(2-(5-(2-(2-methoxyethylamino)ethyl)pyridin-2-yl)thieno[3,2-b]pyridin-7-yloxy)phenyl)urea] displayed an IC50 on VEGFR/KDR of less than 50 nM. In the assay on CNV progression (240 h), this molecule had an inhibition in vivo at 10 nmol/eye of 40 to 60%. As to “2-cyclopropyl-N-(3-fluoro-4-(2-(5-((N- (2-methoxyethyl)-acetamido)methyl)pyridin-2- yl)thieno[3,2-b]-pyridin-7-yloxy)phenyl)-acetamide [Compound 42]”, the “Inhibition of CNV progression” value in the assay with CNV progression is listed as “A (greater than or equal to 60% inhibition)”. With “(S)-1-(4-(2-(5-((3-amino-2-oxopyrrolidin-1-yl)methyl)pyridin-2-yl)thieno[3,2-b]pyridin-7-yloxy)-3-fluorophenyl)-3-cyclopropylurea [Compound 108]”, in the assay with CNV progression, the “Inhibition of CNV progression” value is “A (greater than or equal to 60% inhibition)”. As for `COCCN1CCN(Cc2ccc(-c3cc4nccc(Oc5ccc(NC(=O)NC6CC6)cc5F)c4s3)nc2)CC1` [Compound 56], on VEGFR/KDR, the IC50 is less than 50 nM.

Molecule `CCOC(=O)CCN1CCN(Cc2ccc(-c3cc4nccc(Oc5ccc(NC(=O)NC6CC6)cc5F)c4s3)nc2)CC1` [Compound 68, ethyl 3-(4-((6-(7-(4-(3-cyclopropyl-ureido)-2-fluorophenoxy)-thieno[3,2-b]-pyridin-2-yl)pyridin-3-yl)methyl)piperazin-1-yl)propanoate] had an IC50 on VEGFR/KDR of less than 50 nM. In the case of `CC(C)(C)C(=O)OC1CCN(C(=O)c2cc3nccc(Oc4ccc(NC(=O)NC5CC5)cc4F)c3s2)CC1` [Compound 455], on VEGFR/KDR, the IC50 was 100 to 250 nM.

With `COCCN(Cc1ccc(-c2cc3nccc(Oc4ccc(NC(=O)NC5CC5)cc4F)c3s2)cc1)C(C)=O` [Compound 114, N-(4-(7-(4-(3-cyclopropylureido)-2-fluorophenoxy)thieno[3,2-b]pyridin-2-yl)benzyl)-N-(2-methoxyethyl)acetamide], on VEGFR/KDR, the IC50 was less than 50 nM. The same measure, in the same setting: under `O=C(Nc1ccc(Oc2ccnc3cc(C4=CCN(CCCCO)CC4)sc23)c(F)c1)NC1CC1` [Compound 277, 1-cyclopropyl-3-(3-fluoro-4-(2-(1-(4-hydroxybutyl)-1,2,3,6-tetrahydropyridin-4-yl)thieno[3,2-b]pyridin-7-yloxy)phenyl)urea] stands 100 to 250 nM; under `CN(CCO)C(=O)C1CCN(Cc2ccc(-c3cc4nccc(Oc5ccc(NC(=O)NC6CC6)cc5F)c4s3)nc2)CC1` [Compound 484], less than 50 nM; under `O=C(Cn1cc(-c2cc3nccc(Oc4ccc(NC(=O)NC5CC5)cc4F)c3s2)nn1)NCc1ccccn1` [Compound 383], less than 50 nM.

As to `O=C(Nc1ccc(Oc2ccnc3cc(-c4ccc(CN5CCC(O)CC5)cn4)sc23)c(F)c1)NC1CC1` [Compound 599, 1-Cyclopropyl-3-(3-fluoro-4-(2-(5-((4-hydroxypiperidin-1-yl)methyl)pyridin-2-yl)thieno[3,2-b]pyridin-7-yloxy)phenyl)urea], the IC50 on VEGFR/KDR was less than 50 nM. Same read-out and setting: the result for `COCCN(Cc1ccc(-c2cc3nccc(Oc4ccc(NC(=O)NC5CC5)cc4F)c3s2)nc1)C(=O)CNC(=O)[C@@H](N)C(C)C` [Compound 92, (S)-2-amino-N-(2-(((6-(7-(4-(3-cyclopropylureido)-2-fluorophenoxy)thieno[3,2-b]pyridin-2-yl)pyridin-3-yl)methyl)(2-methoxyethyl)amino)-2-oxoethyl)-3-methylbutanamide] reads less than 50 nM.
